Patent publication US20240099214A1, “PLANT DEFENCE GENE EXPRESSION” (UPL Corporation Limited, priority 2021, published 2024)

Tests used:
Format in all cases: in vivo, Tomato ecotype corbarino
[1] = test system: Nac transcription factor 29-like (gene 8, Solyc05g007770.2); assay: qRT-PCR expression of gene 8 in tomato leaves; parameters: key: relative expression normalized to a-tubulin housekeeping gene
Experimental: (§1) Tomato ecotype “corbarino” reported to be susceptible to TSWV infection was used in the experiment. Plants were grown in pots in a climatic chamber with a photoperiod of 16/8 hour at 25° C.
(§2) The viral strain (TSWV PV PV-0393) was utilized in the experiment. The virus was mechanically inoculated and propagated on tomato “corbarino”. The inoculum was prepared in an ice-cooled mortar grounding 1 gr of infected tomato tissue in 10 ml of Na-phosphate buffer 0.01M. The fresh prepared inoculum was stored in ice before use. Tomato plants at BBCH16 were dusted with Carborundum 600 mesh and selected leaves were rubbed with some droplets of inoculum. After 5 min. plants were sprayed with sterile water to remove the excess of inoculum and preserve the cell turgor.
(§3) Four treatments were compared: i) Mock inoculated; ii) TSWV; iii) 0.25% Laminarin; iv) 0.25% Laminarin+TSWV. In the last treatment the virus was inoculated 24 hrs after the laminarin application.
(§4) Total RNA was extracted from systemic infected tomato leaves by using the Quick-RNA Plant Kit (Zymo Research) following the manufacturer instructions. The extractions were carried out using three plants after 12 h, 24 h, 48 h, 72 h, 7 days after inoculation. Leaves were instantly frozen in liquid nitrogen after cutting to avoid any deterioration of the sample as well as any defense reaction. The RNA concentration was quantified by measuring the absorbance at 260 nm using a Nanodrop 2000 (Thermofisher). The purity of all of the RNA samples was assessed at an absorbance ratio of OD260/280 and OD260/230, while its structural integrity was checked by agarose gel electrophoresis. Only high-quality RNA with OD 260/280 and OD 260/230>2 was used for subsequent steps. Single-stranded cDNA was synthesized from 1 μg of total RNA using an iScript™ Select cDNA Synthesis Kit and random hexamers as primers (Bio-Rad, Milan, Italy), according to the manufacturer's instructions. Three biological replicates were created from the 3 leaves collected to test 15 genes. Alpha tubulin was used as reference gene.
(§5) qPCR reactions were performed with BioRad (Applied Biosystems, Foster City, CA, USA) using SYBR R Green. Each reaction was performed in 20 μl containing 10 μl of 2× Power SYBR Green PCR Master Mix (Life Technologies), 0.2-0.3 μM primers and cDNA samples diluted 1:20. Each qPCR reaction was performed in triplicate. Reactions were run using the cycling parameter described previously (Reid et al., 2006) and the qPCR data were analyzed by the Ct method (Pfaffl, 2001). In order to analyze the qPCR data, a-tubulin gene was used as housekeeping to determine the relative expression level of the other genes analyzed in this work. For the determination of qPCR efficiency of each primer pairs, a standard curve was performed using the following cDNA dilutions: 1:4, 1:16, 1:64; 1:256 and 1:1024. Every measurement was made in triplicate. The corresponding qPCR efficiencies (E) were calculated for every primer pair with the software 7300 System SDS software (Applied Biosystems, Foster City, CA, USA) according to the equation E=(10−1/slope−1)×100 (Rutledge and Stewart, 2008).
(§6) The significance of the differences between the gene expressions levels were compared by one-way ANOVA (p=0.01) and the means were separated by Tukey post-hoc test using SPSS ver.26 ([…]).

[2] = test system: AP2-like-ethylene-responsive transcription factor (gene 4, Solyc11g072600.1); assay: qRT-PCR expression of gene 4 in tomato leaves; parameters: key: relative expression normalized to a-tubulin housekeeping gene
Experimental: as §1, §2, §3, §4, §5, §6

set of defense genes = assay: qRT-PCR gene expression of the set of tested defence genes in tomato leaves (relative to a-tubulin, compared to water treatment); conditions: for gene expression of the set of defense genes compared to TSWV treatment: 48 hours from the treatment, tomato leaves
Experimental: as §1, §2, §3
Total RNA was extracted from systemic infected tomato leaves by using the Quick-RNA Plant Kit (Zymo Research) following the manufacturer instructions. […] The RNA concentration was quantified by measuring the absorbance at 260 nm using a Nanodrop 2000 (Thermofisher). The purity of all of the RNA samples was assessed at an absorbance ratio of OD260/280 and OD260/230, while its structural integrity was checked by agarose gel electrophoresis. […]
qPCR reactions were performed with BioRad (Applied Biosystems, Foster City, CA, USA) using SYBR R Green. […] Reactions were run using the cycling parameter described previously (Reid et al., 2006) and the qPCR data were analyzed by the Ct method (Pfaffl, 2001). In order to analyze the qPCR data, a-tubulin gene was used as housekeeping to determine the relative expression level of the other genes analyzed in this work. […] The corresponding qPCR efficiencies (E) were calculated for every primer pair with the software 7300 System SDS software (Applied Biosystems, Foster City, CA, USA) according to the equation E=(10−1/slope−1)×100 (Rutledge and Stewart, 2008). […]

## laminarin
[1]; 12 hr, Laminarin + virus
  RQ1: 0.9892
  RQ2: 10.375
  RQ3: 10.132
  RQ mean: 10.133
[1]; 12 hr, Laminarin alone
  RQ1: 0.8695
  RQ2: 0.9166
  RQ3: 10.042
  RQ mean: 0.9301
[1]; 24 hr, Laminarin + virus
  RQ1: 11.335
  RQ2: 11.617
  RQ3: 0.9361
  RQ mean: 10.771
[1]; 24 hr, Laminarin alone
  RQ1: 12.571
  RQ2: 13.299
  RQ3: 11.584
  RQ mean: 12.485
[1]; 48 hr, Laminarin + virus
  RQ1: 13.157
  RQ2: 0.7588
  RQ3: 11.274
  RQ mean: 10.673
[1]; 48 hr, Laminarin alone
  RQ1: 12.258
  RQ2: 0.9690
  RQ3: 15.958
  RQ mean: 12.635
[1]; 72 hr, Laminarin + virus
  RQ1: 48.220
  RQ2: 49.687
  RQ3: 22.018
  RQ mean: 39.975
[1]; 72 hr, Laminarin alone
  RQ1: 24.387
  RQ2: 43.671
  RQ3: 32.797
  RQ mean: 33.618
[2]; 12 hr, Laminarin + virus
  RQ1: 12.523
  RQ2: 0.9104
  RQ3: 10.299
  RQ mean: 10.642
[2]; 12 hr, Laminarin alone
  RQ1: 0.9931
  RQ2: 0.9090
  RQ3: 0.7654
  RQ mean: 0.8892
[2]; 24 hr, Laminarin + virus
  RQ1: 1.250
  RQ2: 1.754
  RQ3: 1.545
  RQ mean: 1.516
[2]; 24 hr, Laminarin alone
  RQ1: 1.744
  RQ2: 1.728
  RQ3: 1.516
  RQ mean: 1.662
[2]; 48 hr, Laminarin + virus
  RQ1: 13.802
  RQ2: 15.313
  RQ3: 21.904
  RQ mean: 17.006
[2]; 48 hr, Laminarin alone
  RQ1: 15.231
  RQ2: 15.784
  RQ3: 37.709
  RQ mean: 22.908
[2]; 72 hr, Laminarin + virus
  RQ1: 35.424
  RQ2: 26.180
  RQ3: 29.297
  RQ mean: 30.301
[2]; 72 hr, Laminarin alone
  RQ1: 25.807
  RQ2: 30.148
  RQ3: 26.311
  RQ mean: 27.422
Set of defense genes; 0.25% laminarin + TSWV inoculated 24 hrs after laminarin application
  gene expression of the set of defense genes compared to TSWV treatment: activates the set of defense genes at higher level compared to TSWV
Set of defense genes; 0.25% laminarin alone
  gene expression of the set of defense genes compared to TSWV treatment: activates the set of defense genes at higher level compared to TSWV
Set of defense genes; 72 hr
  gene expression of the tested genes, overall: clear evidence of the laminarin effects
